The source of these data is US20200164047A1, “THERAPY AND DIAGNOSIS OF DISEASE CHARACTERIZED BY ALTERATIONS IN THE DNA DAMAGE RESPONSE” (UNIVERSITÀ DEGLI STUDI DI MILANO, priority 2017, published 2020).

The subject of experiment [1] is PP2A-GSK3β-MCL-1 axis. Nature of the experiment: Immunoblotting of phosphorylated GSK3β, MCL-1 and CIP2A. The following applies: HCT116 and HeLa. The format is cell-based. On the procedure: FIG. 16. […] (A, B) Immunoblotting analysis of lysates derived from HCT116 and HeLa cells cultured for 24 hours in either nutrient-rich DMEM (containing 10% FBS and 10 mM glucose), DMEM containing 2.5 mM glucose (glucose deprivation), DMEM with 0.1% serum (serum deprivation) or DMEM with no glutamine, no methionine and no cysteine (amino acids deprivation). Media were replenished every 6 hours.
FIG. 31. […] (B) Immunoblotting analysis of total cell lysates used for immunoprecipitation in (A).
Whole cell lysates were prepared by directly lysing cells growing in culturing dishes or collected cell pellets in lysis buffer (40 mM Hepes pH 7.5, 120 mM NaCl, 1 mM EDTA, 10 mM pyrophosphate, 10 mM glycerophosphate, 50 mM NaF, 0.5 mM orthovanadate, and EDTA-free protease inhibitors (Roche) containing 0.3% CHAPS). Lysates were prepared from frozen tumors using GentleMACS dissociator. Lysates were cleared by centrifugation at 13000 g for 15 min. at 4° C., quantified using BioRad DC protein assay reagent followed by mixing 1:1 with 4% SDS, 100 mM Tris.Cl pH 6.8, 20% glycerol, 0.1% bromophenol blue and 5% β-mercaptoethanol added immediately before use and heating at 94° C. for 7 min. Equal amounts of proteins were then electrophoresed on 8-15% SDS-PAGE gels. Gels were run at 100 V (stacking gel)/150 V (separation gel) on Protean III apparatus (BioRad). Gels were transferred onto nitrocellulose and probed with the appropriate primary antibody for a variable incubation time depending on the experimental design, followed by the corresponding secondary antibodies diluted 1:5000-10000. The proteins were visualized by enhanced chemiluminescence (ECL) using ChemiDoc apparatus (BioRad) according to the manufacturer's instructions.
A general note: A western blot detects proteins with antibodies after separation by electrophoresis.

Experiment [2] concerns HeLa cells. Nature of the experiment: HeLa viable cell count with DNA damaging agents (trypan blue). The class given is cell-based. Conditions: hydroxyurea 10 mM + gemcitabine 10 nM; high (10 mM) or low (2.5 mM) glucose. The procedure: After 24 hrs treatment, cells are allowed to grow for further 24 hrs (replacing the medium with normal medium), before being harvested and counted with trypan blue to measure viable cells.
HeLa cells were seeded in 6-well plates (200,00 cells/well), and left untreated, or treated with DNA damaging agents (hydroxyurea 10 mM+gemcitabine 10 nM), in high (10 mM) or low (2.5 mM) glucose, and treated with perphenazine (PPZ) as indicated. After 24 hrs treatment, cells are allowed to grow for further 24 hrs (replacing the medium with normal medium), before being harvested and counted with trypan blue to measure viable cells.
HeLa cells were seeded in 6-well plates (200,00 cells/well), and left untreated, or treated with DNA damaging agents (hydroxyurea 10 mM+gemcitabine 10 nM), in high (10 mM) or low (2.5 mM) glucose, and treated with FTY-720 (FTY) as indicated. After 24 hrs treatment, cells are allowed to grow for further 24 hrs (replacing the medium with normal medium), before being harvested and counted with trypan blue to measure viable cells.
HeLa cells were seeded in 6-well plates (200,00 cells/well), and left untreated, or treated with DNA damaging agents (hydroxyurea 10 mM+gemcitabine 10 nM), in high (10 mM) or low (2.5 mM) glucose, and treated with Ceramide as indicated. After 24 hrs treatment, cells are allowed to grow for further 24 hrs (replacing the medium with normal medium), before being harvested and counted with trypan blue to measure viable cells.
Cells were harvested by trypsinization, washed in PBS (pH 7.2), and then stained with trypan blue solution 04% v/v (Sigma Aldrich) added immediately prior to analysis. Cells ware then counted on a TC30 automated cell counter (Biorad).

Consider `CN(C)C(=N)NC(=N)N.Cl` [metformin], for which the GSK3β phosphorylation entry in experiment [1] (low glucose-metformin combination) is listed as “almost completely abolished GSK3β phosphorylation”. Further, the MCL-1 protein levels result in experiment [1] (metformin in low glucose) was “marked reduction in MCL-1 protein levels”. For the same compound, the “level of CIP2A” value in experiment [1] (metformin treatment) was “reduction in the level of CIP2A”. The “cooperation with DNA damaging agents (viable cells)” value in experiment [2] was “potentiates the effect of DNA damaging agents in low glucose”.
